Laboratory results published in patent US12268739B2, “Use of toll-like receptor 2 (TLR-2) agonist for modulating human immune response” (Children's Medical Center Corporation, priority 2018, dated 2025).

What was measured:
[1] = system: NF-κB reporter THP1 cells; experiment: NF-kB-induced luminescence HTS in THP1-Lucia cells (384-well); format: cell-based, human; conditions: ranked at 3.3 μM; ~200,000 compounds tested
From the text: HTS Overview: To identify immunomodulators/adjuvants that robustly activate human immune cells, ˜200,000 small molecules were screening in a THP1 cell-based assay. The chemical libraries screened included known bioactive and commercial libraries from various sources including commercial libraries such as ChemDiv, ChemBridge, and Asinex. All libraries were owned and provided by the Institute of Chemistry and Cell Biology (ICCB)—Longwood (Harvard Medical School). The project primary screen incorporated two distinct arms: a) a luciferase-based screen which corresponds to the relative activation of the NF-κB reporter; and b) a fluorescence-based screen, corresponding to the phenotypic adherence, a distinct marker of cell activation, of the human monocytic THP-1 cell lines. Described herein are small molecules identified in the screen that induce NF-kB activity based on a luciferase-based THP-1 cell screen.
(§1) THP-1 Cell Line and Culture Conditions. The THP1-Lucia™ cell line was obtained from Invivogen (San Diego, CA). THP1-Lucia cells, which are human monocytic cells derived from the blood of a child with leukemia, contain an NF-kB-inducible Luc reporter construct. This allows NF-kB activation to be measured by quantifying the luminescence from the secreted luciferase enzyme. THP1-Lucia cells were cultured in RPMI 1640 supplemented with 10% non-heat inactivated fetal bovine serum (FBS), 10 mM HEPES, 1.0 mM sodium pyruvate, 50 ug/ml Pen-Strep, and 100 ug/mL Normocin™. Once cultured, the cells were stored in a 37° C. incubator with 5% CO2 and a humidified atmosphere. Cells were passaged every 2-3 days and not allowed to exceed a concentration of 2.0×10^6 cells/ml media.
NF-kB-induced Luminescence Assay. THP1-Lucia cells between passage 15 and 18 and suspended in culture medium were dispensed into 384-well black clear-bottom plates (Corning 3712) at 30,000 cells/30 μl/well using a Combi liquid dispenser. To allow comparison to a benchmark small molecule with known immune stimulating activity, cells at the same concentration were stimulated with 50 μM R848, a TLR7/8 agonist, in 0.3% DMSO and added to every other well of column 24, which was left empty of cells, by multichannel pipette at the same volume. Five μl of 700 nM Phorbol myristate acetate (PMA) in THP1 culture media and 2.3% DMSO, a known peripheral blood cell mitogen, was added to every other well of column 23 by multichannel pipette (final concentration in well: 100 nM in 0.3% DMSO). Five μl of THP1 culture media with 2.3% DMSO was added to the remaining wells of column 23 by multichannel pipette (final concentration 0.3% DMSO). One hundred nl aliquots of library compounds diluted in 100% DMSO were transferred from their original 384-well plates to the assay plates using a Seiko pin transfer machine. Each library plate was pinned in duplicate, yielding two assay plates with identical conditions for comparison. Plates were then incubated for 24 hours at 37 C with 5% CO2 in humid conditions. Following incubation, 10 μL of supernatant was removed from each well and transferred to a white plate (Corning 3570) using a Vprep liquid transfer machine. 10 μL of recombinant Lucia protein (Invivogen) diluted 1:2000 in THP1 culture media was added to empty well 24P. Using a Combi liquid dispenser, 50 μL/well of Quanti-Luc substrate (Invivogen) diluted 1:3 in sterile water was added to the assay plate. Immediately after adding the substrate, the luminescence was read using a PerkinElmer Envision plate reader.

THP1-NF-κB cells = experiment: THP1-NF-κB cell stimulation for 24 hours, secreted luciferase luminescence; format: cell-based, human; conditions: NF-κB-dependent luminescence, 24 hours; for THP1 cells (relative luminescence units, N = 4) Comp at 25 uM: compound at 25 uM; for THP1 cells (relative luminescence units, N = 4) Comp at 100 uM: compound at 100 uM
Experimental: as §1
(§2) PBMCs were isolated from blood using a Ficoll density gradient. PBMCs either used fresh or were stored at 5×10^7 cells per vial in 1 mL RPMI containing 20% autologous plasma and 10% DMSO at −80° C. until use. Stimulation plates were prepared by transferring 0.66 μl of DMSO-dissolved compounds (30 or 7.5 mM) to each well of a round bottom 96-well plate. PBMCs isolated from human adult donors or THP1-NF-κB cells were resuspended at a concentration of 10^5 cells/200 μl of RPMI supplemented with 10% of platelet-poor plasma or THP1 culture medium, respectively. 200 μl of the cell suspension were transferred to each well resulting in a final compound concentration of 100 or 25 μM. After 24 hours of incubation (37° C., 5% CO2), plates were spun down (500×g, room temperature, 5 minutes) and supernatants were harvested for further analysis.

human adult PBMCs = experiment: Cytokine production by stimulated human adult PBMCs (ELISA / multiplex); format: cell-based; conditions: human adult PBMCs, 24 hours, compounds at 100 µM (FIG. 7), ELISA, median
Experimental: ELISAs and Multiplex-Analyte Assays. Supernatants derived from human PBMCs stimulations were assayed by ELISA for TNF and IL-6 (ThermoFisher Scientific; Waltham, MA, USA). Cytokine and chemokine expression profiles (e.g., IFNγ, IL-9, IL-10, IL-12 (p70), IL-13, IL-1β, IL-23, IL-27, IL-28A, IL-33, IL-6, MIP-3α/CCL20, and TNF) in cell culture supernatants were measured using a customized Milliplex® Human Th17 Magnetic Bead Panel according to the manufacturer's instructions (Millipore, Chicago, IL, USA). Assays were read and analyzed on the Luminex® 100/200TM System and xPOTENT® software (Luminex, Austin, TX). A minimum threshold was set at the minimum detectable concentration for each individual assay, defined as three standard deviations above the mean background.
as §2, with “Stimulation plates were prepared by transferring 0.66 μl of DMSO-dissolved compounds (30 or 7.5 mM) to each well of a round bottom 96-well plate.” left out, “200 μl of the cell suspension were transferred to each well resulting in a final compound concentration of 100 or 25 μM.” left out

Compound | Efficacy in activating NF-κB in THP1 cells (screening hits) [1] | THP1 cells (relative luminescence units, N = 4) Comp at 25 uM (THP1-NF-κB cells) | THP1 cells (relative luminescence units, N = 4) Comp at 100 uM (THP1-NF-κB cells) | Adult PBMCs (median ng/ml) IL-6 (N = 7) (human adult PBMCs) [ng/mL] | Adult PBMCs (median ng/ml) TNFa (N = 13) (human adult PBMCs) [ng/mL]
COC(=O)c1c(NC(=O)CN2CCN(C(=O)c3ccco3)CC2)sc2c1CCC2 [Compound 003] | most effective | – | – | – | –
CCOC(=O)c1c(NC(=O)CN2CCC3(CC2)OCCO3)sc(C)c1C [Compound 005] | most effective | – | – | – | –
CNC(=O)c1c(NC(=O)c2ccc(Cl)cc2)sc2c1CCC2 [Compound 80.5] | – | 436.5 relative luminescence units | 777 relative luminescence units | 0.008 | 0.008
CCN(CC)S(=O)(=O)c1ccc(C(=O)Nc2sc3c(c2C(=O)NC)CCC3)cc1 [Compound 80.6] | – | 2505 relative luminescence units | 2816 relative luminescence units | – | –
CNC(=O)c1c(NC(=O)c2ccc(OC)cc2)sc2c1CCC2 [Compound 80.8] | – | 258.5 relative luminescence units | 2552 relative luminescence units | 0.008 | 0.008
CNC(=O)c1c(NC(=O)c2ccc(C#N)cc2)sc2c1CCC2 [Compound 80.11] | – | 1108 relative luminescence units | 2420 relative luminescence units | 0.0225 | 0.008
CNC(=O)c1c(NC(=O)c2ccc(S(=O)(=O)N(C)C)cc2)sc2c1CCCCC2 [Compound 80.13] | – | 348 relative luminescence units | 11361 relative luminescence units | 0.008 | 0.008
CNC(=O)c1c(NC(=O)c2ccc(S(=O)(=O)N3CCCCC3)cc2)sc(C)c1C [Compound 80.14] | – | 517 relative luminescence units | 1475 relative luminescence units | 0.008 | 0.008
CNc1ccc([N+](=O)[O-])cc1-n1cnc(-c2ccc([N+](=O)[O-])cc2)c1 [TM-A, reference compound] | – | 8777 relative luminescence units | 13092 relative luminescence units | 2.154 | 0.092
COC(=O)c1c(NC(=O)Nc2ccccc2)sc2c1CCCC2 [TM-B, reference compound] | – | 1204 relative luminescence units | 681 relative luminescence units | 0.057 | 0.008
CCOC(=O)c1c(NC(=S)Nc2ccc(OC)cc2)sc2c1CCCC2 [TM-C, reference compound] | – | 3440 relative luminescence units | 4031 relative luminescence units | 0.5145 | 0.01575
Cc1ccc(N(CC(=O)NCc2ccc(Cl)cc2)S(C)(=O)=O)cc1 [TM-E, reference compound] | – | 320 relative luminescence units | 428.5 relative luminescence units | 0.008 | 0.008
COc1ccc(CNC(=O)CN(c2ccc(Br)cc2)S(=O)(=O)c2ccccc2)cc1 [TM-F, reference compound] | – | 348.5 relative luminescence units | 2012 relative luminescence units | 0.008 | 0.008
